In PubChem BioAssay AID330 (DTP/NCI, 2004):
Several values for one entry are separate records, joined by “and”; a condition that tells them apart may be missing. Identical values can stand only once. Toxic doses and inconclusive results are not listed. The calls were made as follows: active = survival T/C of 150% or more; inactive = T/C below 125% in these data.

Tested on: P388 leukemia ip, CD2F1 mice, survival T/C
Experiment: NCI In Vivo Anticancer Drug Screen. Data for tumor model P388 Leukemia (intraperitoneal) in CD2F1 (CDF1) mice
Conditions: endpoint: median survival time, higher = longer survival
Outline: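 Mice carrying the transplanted tumor received test compound or vehicle. Survival was recorded in each group, and the value is the treated-group measurement divided by that of the vehicle-treated control group.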

[1] = dose: 100.0 mg/kg/injection, schedule: Q01DX009 (ip), vehicle: saline
[2] = dose: 200.0 mg/kg/injection, schedule: Q01DX009 (ip), vehicle: saline
[3] = dose: 50.0 mg/kg/injection, schedule: Q01DX005 (ip), vehicle: saline with Tween-80
[4] = dose: 100.0 mg/kg/injection, schedule: Q01DX005 (ip), vehicle: saline with Tween-80
[5] = dose: 50.0 mg/kg/injection, schedule: Q01DX005 (ip), vehicle: Klucel (hydroxypropylcellulose) (HPC)
[6] = dose: 100.0 mg/kg/injection, schedule: Q01DX005 (ip), vehicle: Klucel (hydroxypropylcellulose) (HPC)
[7] = dose: 200.0 mg/kg/injection, schedule: Q01DX005 (ip), vehicle: Klucel (hydroxypropylcellulose) (HPC)

Measured: T/C

Cc1cc(-c2ccccc2)c(C)c(-c2ccccc2)c1-c1ccccc1
inactive: dose: 100.0 mg/kg/injection, schedule: Q04DX002 (ip), vehicle: saline with Tween-80 99 % of control | dose: 200.0 mg/kg/injection, schedule: Q04DX002 (ip), vehicle: saline with Tween-80 101 % of control | dose: 400.0 mg/kg/injection, schedule: Q04DX002 (ip), vehicle: saline with Tween-80 96 % of control

O=C(NC(Cc1ccc(F)cc1)C(=O)O)c1ccccc1 (centres undefined)
inactive: dose: 25.0 mg/kg/injection, schedule: Q01DX009 (ip), vehicle: other 113 % of control | dose: 50.0 mg/kg/injection, schedule: Q01DX009 (ip), vehicle: other 115 % of control | dose: 100.0 mg/kg/injection, schedule: Q01DX009 (ip), vehicle: other 110 % of control

NC1=NC(c2ccccc2O)CC(=O)N1 (centres undefined)
inactive: dose: 50.0 mg/kg/injection, schedule: Q01DX009 (ip), vehicle: saline 103 % of control | [1] 111 % of control | [2] 110 % of control

Cc1c(C)[n+](=O)c2ccc(/C=[N+](/[O-])CCO)cc2n1[O-]
inactive: dose: 50.0 mg/kg/injection, schedule: Q01DX009 (ip), vehicle: Klucel (hydroxypropylcellulose) (HPC) 99 % of control | dose: 100.0 mg/kg/injection, schedule: Q01DX009 (ip), vehicle: Klucel (hydroxypropylcellulose) (HPC) 99 % of control | dose: 200.0 mg/kg/injection, schedule: Q01DX009 (ip), vehicle: Klucel (hydroxypropylcellulose) (HPC) 107 % of control

CCC(=O)NC(C)C(=O)O (centres undefined)
inactive: dose: 6.25 mg/kg/injection, schedule: Q01DX009 (ip), vehicle: saline 100 % of control | dose: 12.5 mg/kg/injection, schedule: Q01DX009 (ip), vehicle: saline 88 % of control | dose: 25.0 mg/kg/injection, schedule: Q01DX009 (ip), vehicle: saline 88 % of control | [1] 94 % of control | [2] 97 % of control

[Cl][Pd][Cl]
inactive: dose: 3.0 mg/kg/injection, schedule: Q01DX009 (ip), vehicle: saline with Tween-80 95 % of control | dose: 6.0 mg/kg/injection, schedule: Q01DX009 (ip), vehicle: saline with Tween-80 113 % of control | dose: 12.0 mg/kg/injection, schedule: Q01DX009 (ip), vehicle: saline with Tween-80 122 % of control

O=Nc1c(NO)n(-c2ccccc2)c(=S)n1-c1ccccc1
inactive: [3] 95 % of control | [4] 109 % of control | dose: 200.0 mg/kg/injection, schedule: Q01DX005 (ip), vehicle: saline with Tween-80 104 % of control

CCCCOC(=O)C1ON(c2ccc(C=O)cc2)C(c2ccc([N+](=O)[O-])cc2)C1C(=O)OCCCC (centres undefined)
inactive: [5] 97 % of control | [6] 94 % of control | [7] 91 % of control

Brc1nc(-[n+]2ccccc2)[n-]c1Br
inactive: dose: 100.0 mg/kg/injection, schedule: Q04DX003 (ip), vehicle: saline 101 % of control | dose: 200.0 mg/kg/injection, schedule: Q04DX003 (ip), vehicle: saline 99 % of control | dose: 400.0 mg/kg/injection, schedule: Q04DX003 (ip), vehicle: saline 100 % of control

CN1CCN(CC2C(=O)C3CCC2C3)CC1 (centres undefined)
inactive: [3] 93 % of control | [4] 101 % of control

Cc1c(C(N)=O)no[n+]1[O-]
inactive: dose: 30.0 mg/kg/injection, schedule: Q01DX005 (ip), vehicle: saline 100 % of control | dose: 60.0 mg/kg/injection, schedule: Q01DX005 (ip), vehicle: saline 99 % of control and 100 % of control | dose: 120.0 mg/kg/injection, schedule: Q01DX005 (ip), vehicle: saline 99 % of control and 100 % of control

C=C(C)C1CC=C(C)C(OCCN(CC)CC)C1 (centres undefined)
inactive: [5] 100 % of control | [6] 103 % of control

CCOC(=O)CC(=O)C(F)(F)F.[Cu+2]
inactive: dose: 2.5 mg/kg/injection, schedule: Q01DX009 (ip), vehicle: saline with Tween-80 100 % of control | dose: 5.0 mg/kg/injection, schedule: Q01DX009 (ip), vehicle: saline with Tween-80 115 % of control | dose: 10.0 mg/kg/injection, schedule: Q01DX009 (ip), vehicle: saline with Tween-80 110 % of control

FC(F)(F)C1(C(F)(F)F)OI2(Br)(OC(C(F)(F)F)(C(F)(F)F)c3ccccc32)c2ccccc21
inactive: dose: 6.25 mg/kg/injection, schedule: Q01DX005 (ip), vehicle: Klucel (hydroxypropylcellulose) (HPC) 99 % of control | dose: 12.5 mg/kg/injection, schedule: Q01DX005 (ip), vehicle: Klucel (hydroxypropylcellulose) (HPC) 97 % of control

O=C1CN=C(c2ccc[nH]2)c2cc(Cl)ccc2N1
inactive: dose: 25.0 mg/kg/injection, schedule: Q01DX009 (ip), vehicle: Klucel (hydroxypropylcellulose) (HPC) 120 % of control | dose: 25.0 mg/kg/injection, schedule: Q01DX009 (ip), vehicle: saline with Tween-80 109 % of control | dose: 50.0 mg/kg/injection, schedule: Q01DX001 (ip), vehicle: saline 109 % of control | dose: 50.0 mg/kg/injection, schedule: Q01DX009 (ip), vehicle: saline with Tween-80 100 % of control | dose: 100.0 mg/kg/injection, schedule: Q01DX001 (ip), vehicle: saline 109 % of control | dose: 100.0 mg/kg/injection, schedule: Q01DX009 (ip), vehicle: saline with Tween-80 104 % of control | dose: 200.0 mg/kg/injection, schedule: Q01DX001 (ip), vehicle: saline 104 % of control | dose: 200.0 mg/kg/injection, schedule: Q01DX009 (ip), vehicle: saline with Tween-80 118 % of control | dose: 400.0 mg/kg/injection, schedule: Q01DX001 (ip), vehicle: saline 100 % of control | dose: 400.0 mg/kg/injection, schedule: Q01DX009 (ip), vehicle: saline with Tween-80 118 % of control

CCCCCN(CCCCC)CCCNc1c2c(nc3ccc(OC)cc13)CCCC2
inactive: dose: 3.12 mg/kg/injection, schedule: Q01DX005 (ip), vehicle: saline 94 % of control | dose: 6.25 mg/kg/injection, schedule: Q01DX005 (ip), vehicle: saline 103 % of control | dose: 12.5 mg/kg/injection, schedule: Q01DX005 (ip), vehicle: saline 99 % of control

CN(C)c1cc[n+](-c2c([O-])c3ccccc3n(-c3ccccc3)c2=O)cc1
inactive: [5] 107 % of control | [6] 104 % of control | [7] 97 % of control

O=c1[nH]c(N[N+](=O)[O-])nc(-c2ccccc2)c1Br
inactive: dose: 60.0 mg/kg/injection, schedule: Q01DX005 (ip), vehicle: saline with Tween-80 98 % of control | dose: 120.0 mg/kg/injection, schedule: Q01DX005 (ip), vehicle: saline with Tween-80 100 % of control | dose: 240.0 mg/kg/injection, schedule: Q01DX005 (ip), vehicle: saline with Tween-80 99 % of control

C=CC1(OC)CC1CO (centres undefined)
inactive: dose: 25.0 mg/kg/injection, schedule: Q01DX001 (ip), vehicle: Klucel (hydroxypropylcellulose) (HPC) 99 % of control | dose: 50.0 mg/kg/injection, schedule: Q01DX001 (ip), vehicle: Klucel (hydroxypropylcellulose) (HPC) 102 % of control | dose: 100.0 mg/kg/injection, schedule: Q01DX001 (ip), vehicle: Klucel (hydroxypropylcellulose) (HPC) 91 % of control and 93 % of control | dose: 200.0 mg/kg/injection, schedule: Q01DX001 (ip), vehicle: Klucel (hydroxypropylcellulose) (HPC) 95 % of control
